Assay results from ChEMBL document CHEMBL1152667, “Synthesis and radiopharmacological investigation of 3-[4'-[(18)F]fluorobenzylidene]indolin-2-one as possible tyrosine kinase inhibitor” (Bioorg Med Chem, 2009).

Key:
[1] = tested on: Kidney; assay: Biodistribution in Wistar rat kidney at 1.7 MBq, iv administered as single dose measured after 60 mins post-injection by gamma counting; type: ADME, organism-based; details: in vivo, 1 h
[2] = Biodistribution in Wistar rat thyroid gland at 1.7 MBq, iv administered as single dose measured after 60 mins post-injection by gamma counting; type: ADME, organism-based; details: in vivo, 1 h
[3] = tested on: Thymus; assay: Biodistribution in Wistar rat thymus at 1.7 MBq, iv administered as single dose measured after 5 mins post-injection by gamma counting; type: ADME, organism-based; details: in vivo
[4] = tested on: Adrenal gland; assay: Biodistribution in Wistar rat adrenal gland at 1.7 MBq, iv administered as single dose measured after 10 mins post-injection by gamma counting; type: ADME, organism-based; details: in vivo
[5] = Phase 1 elimination half life in Wistar rat at 30 MBq, iv by radio-HPLC analysis; type: ADME, organism-based; details: in vivo, read-out: beta t1/2 (converted)
[6] = tested on: Pancreas; assay: Biodistribution in Wistar rat pancreas at 1.7 MBq, iv administered as single dose measured after 5 mins post-injection by gamma counting; type: ADME, organism-based; details: in vivo
[7] = tested on: Spleen; assay: Biodistribution in Wistar rat spleen at 1.7 MBq, iv administered as single dose measured after 1 min post-injection by gamma counting; type: ADME, organism-based; details: in vivo
[8] = Biodistribution in Wistar rat thyroid gland assessed as standard uptake value at 1.7 MBq, iv administered as single dose measured after 10 mins post-injection by gamma counting; type: ADME, organism-based; details: in vivo
[9] = tested on: Muscle tissue; assay: Biodistribution in Wistar rat muscle assessed as standard uptake value at 1.7 MBq, iv administered as single dose measured after 60 mins post-injection by gamma counting; type: ADME, organism-based; details: in vivo, 1 h
[10] = Biodistribution in Wistar rat thyroid gland at 1.7 MBq, iv administered as single dose measured after 5 mins post-injection by gamma counting; type: ADME, organism-based; details: in vivo
[11] = tested on: Lung; assay: Biodistribution in Wistar rat lung assessed as standard uptake value at 1.7 MBq, iv administered as single dose measured after 1 min post-injection by gamma counting; type: ADME, organism-based; details: in vivo
[12] = tested on: Kidney; assay: Biodistribution in Wistar rat kidney at 1.7 MBq, iv administered as single dose measured after 30 mins post-injection by gamma counting; type: ADME, organism-based; details: in vivo, 0.5 h
[13] = tested on: Blood; assay: Biodistribution in Wistar rat blood assessed as standard uptake value at 1.7 MBq, iv administered as single dose measured after 30 mins post-injection by gamma counting; type: ADME, organism-based; details: in vivo, 0.5 h
[14] = tested on: Blood; assay: Biodistribution in Wistar rat blood assessed as standard uptake value at 1.7 MBq, iv administered as single dose measured after 5 mins post-injection by gamma counting; type: ADME, organism-based; details: in vivo
[15] = tested on: Liver; assay: Biodistribution in Wistar rat liver assessed as standard uptake value at 1.7 MBq, iv administered as single dose measured after 1 min post-injection by gamma counting; type: ADME, organism-based; details: in vivo
[16] = Biodistribution in Wistar rat stomach at 1.7 MBq, iv administered as single dose measured after 5 mins post-injection by gamma counting; type: ADME, organism-based; details: in vivo
[17] = tested on: Testes; assay: Biodistribution in Wistar rat testes at 1.7 MBq, iv administered as single dose measured after 5 mins post-injection by gamma counting; type: ADME, organism-based, Testis; details: in vivo
[18] = tested on: Adrenal gland; assay: Biodistribution in Wistar rat adrenal gland assessed as standard uptake value at 1.7 MBq, iv administered as single dose measured after 1 min post-injection by gamma counting; type: ADME, organism-based; details: in vivo
[19] = Ratio of drug level in brown adipose tissue to blood in Wistar rat at 1.7 MBq, iv administered as single dose measured after 5 mins post-injection; type: ADME, organism-based
[20] = tested on: Muscle tissue; assay: Biodistribution in Wistar rat muscle assessed as standard uptake value at 1.7 MBq, iv administered as single dose measured after 1 min post-injection by gamma counting; type: ADME, organism-based; details: in vivo
[21] = tested on: Brain; assay: Biodistribution in Wistar rat brain assessed as standard uptake value at 1.7 MBq, iv administered as single dose measured after 1 min post-injection by gamma counting; type: ADME, organism-based; details: in vivo
[22] = tested on: Femur; assay: Biodistribution in Wistar rat femur at 1.7 MBq, iv administered as single dose measured after 1 min post-injection by gamma counting; type: ADME, organism-based; details: in vivo
[23] = tested on: Lung; assay: Biodistribution in Wistar rat lung at 1.7 MBq, iv administered as single dose measured after 1 min post-injection by gamma counting; type: ADME, organism-based; details: in vivo
[24] = tested on: Muscle tissue; assay: Biodistribution in Wistar rat muscle assessed as standard uptake value at 1.7 MBq, iv administered as single dose measured after 5 mins post-injection by gamma counting; type: ADME, organism-based; details: in vivo
[25] = tested on: Heart; assay: Biodistribution in Wistar rat heart assessed as standard uptake value at 1.7 MBq, iv administered as single dose measured after 60 mins post-injection by gamma counting; type: ADME, organism-based; details: in vivo, 1 h
[26] = Metabolic stability in Wistar rat plasma assessed as compound remaining at 0.5 MBq after 60 mins by radio-HPLC analysis; type: ADME, cell-free; details: read-out: Stability
[27] = Ratio of drug level in pancreas to blood in Wistar rat at 1.7 MBq, iv administered as single dose measured after 60 mins post-injection; type: ADME, organism-based
[28] = tested on: Heart; assay: Biodistribution in Wistar rat heart assessed as standard uptake value at 1.7 MBq, iv administered as single dose measured after 10 mins post-injection by gamma counting; type: ADME, organism-based; details: in vivo
[29] = tested on: Pancreas; assay: Biodistribution in Wistar rat pancreas assessed as standard uptake value at 1.7 MBq, iv administered as single dose measured after 1 min post-injection by gamma counting; type: ADME, organism-based; details: in vivo
[30] = tested on: Femur; assay: Biodistribution in Wistar rat femur assessed as standard uptake value at 1.7 MBq, iv administered as single dose measured after 60 mins post-injection by gamma counting; type: ADME, organism-based; details: in vivo, 1 h
[31] = Metabolic stability in Wistar rat blood assessed as compound remaining at 30 MBq, iv after 3 mins by radio-HPLC analysis; type: ADME, organism-based; details: read-out: Stability
[32] = tested on: Intestine; assay: Biodistribution in Wistar rat intestine at 1.7 MBq, iv administered as single dose measured after 5 mins post-injection by gamma counting; type: ADME, organism-based; details: in vivo
[33] = tested on: Spleen; assay: Biodistribution in Wistar rat spleen at 1.7 MBq, iv administered as single dose measured after 60 mins post-injection by gamma counting; type: ADME, organism-based; details: in vivo, 1 h
[34] = Biodistribution in Wistar rat adipose tissue assessed as standard uptake value at 1.7 MBq, iv administered as single dose measured after 5 mins post-injection by gamma counting; type: ADME, organism-based; details: in vivo
[35] = tested on: Femur; assay: Biodistribution in Wistar rat femur at 1.7 MBq, iv administered as single dose measured after 60 mins post-injection by gamma counting; type: ADME, organism-based; details: in vivo, 1 h
[36] = tested on: Liver; assay: Biodistribution in Wistar rat liver at 1.7 MBq, iv administered as single dose measured after 1 min post-injection by gamma counting; type: ADME, organism-based; details: in vivo
[37] = tested on: Testes; assay: Biodistribution in Wistar rat testes at 1.7 MBq, iv administered as single dose measured after 60 mins post-injection by gamma counting; type: ADME, organism-based, Testis; details: in vivo, 1 h
[38] = tested on: Pancreas; assay: Biodistribution in Wistar rat pancreas assessed as standard uptake value at 1.7 MBq, iv administered as single dose measured after 5 mins post-injection by gamma counting; type: ADME, organism-based; details: in vivo
[39] = tested on: Heart; assay: Biodistribution in Wistar rat heart assessed as standard uptake value at 1.7 MBq, iv administered as single dose measured after 30 mins post-injection by gamma counting; type: ADME, organism-based; details: in vivo, 0.5 h
[40] = Biodistribution in Wistar rat brown adipose tissue assessed as standard uptake value at 1.7 MBq, iv administered as single dose measured after 10 mins post-injection by gamma counting; type: ADME, organism-based; details: in vivo
[41] = tested on: Brain; assay: Biodistribution in Wistar rat brain assessed as standard uptake value at 1.7 MBq, iv administered as single dose measured after 60 mins post-injection by gamma counting; type: ADME, organism-based; details: in vivo, 1 h
[42] = Biodistribution in Wistar rat urine at 1.7 MBq, iv administered as single dose measured after 10 mins post-injection by gamma counting; type: ADME, organism-based; details: in vivo

Drug uptake [1]: 0.91 %ID | Drug uptake [2]: 0.01 %ID | Drug uptake [3]: 0.34 %ID | Drug uptake [4]: 0.1 %ID | half-life [5]: 8 s | Drug uptake [6]: 0.38 %ID | Drug uptake [7]: 0.31 %ID | SUV [8]: 0.75% | SUV [9]: 0.19% | Drug uptake [10]: 0.08 %ID | SUV [11]: 4.26% | Drug uptake [12]: 1.45 %ID | SUV [13]: 0.27% | SUV [14]: 0.56% | SUV [15]: 2.98% | Drug uptake [16]: 0.94 %ID | Drug uptake [17]: 0.38 %ID | SUV [18]: 4.95% | Kp at 5 min [19]: 4.1 | SUV [20]: 0.82% | SUV [21]: 2.84% | Drug uptake [22]: 0.44 %ID | Drug uptake [23]: 2.68 %ID | SUV [24]: 0.83% | SUV [25]: 0.2% | remaining at 1 h, 0.5 MBq [26]: 96% | Kp at 1 h [27]: 2.1 | SUV [28]: 0.88% | SUV [29]: 2.4% | SUV [30]: 0.19% | remaining at 0.05 h [31]: 54% | Drug uptake [32]: 13.96 %ID | Drug uptake [33]: 0.04 %ID | SUV [34]: 1.21% | Drug uptake [35]: 0.11 %ID | Drug uptake [36]: 17.16 %ID | Drug uptake [37]: 0.24 %ID | SUV [38]: 1.66% | SUV [39]: 0.44% | SUV [40]: 1.83% | SUV [41]: 0.18% | Drug uptake [42]: 6.98 %ID
Structure (SMILES): O=C1Nc2ccccc2/C1=C/c1ccc([18F])cc1
